{"source": "paper PMC3689638", "about": "“Cell cycle-dependent activity of the novel dual PI3K-MTORC1/2 inhibitor NVP-BGT226 in acute leukemia” (Molecular Cancer, 2013)", "key": {"[1]": {"system": "Ba/F3 parental and mutant-TK transfectant cell lines", "assay": "Induction of apoptosis, all tested Ba/F3 cell lines", "assay_type": "cell-based, murine", "settings": "Mus musculus, BaF3; virtually all tested Ba/F3 cell lines; read-out: transfectant-specific IC50s, induction of apoptosis (span over cell lines)", "procedure": "These findings are in line with our results for the corresponding tested human leukemia cell lines.\nTranslocation of phosphatidylserine from the inner to the outer leaflet of the plasma membrane as an early indicator of apoptosis was analyzed using an Annexin V-based assay (Immunotech, Marseilles, France) and a FACScalibur® flow cytometer loaded with CellQuest® analysis software (BD, Heidelberg, Germany)."}, "[2]": {"system": "AKT phosphorylation (S473, T308)", "assay": "western immunoblot of AKT signaling, Jurkat cells", "assay_type": "cell-based, human", "from_the_text": "Rabbit anti-panAKT, panFLT3, panABL1 or anti-cleaved caspase 3 antibodies were used at a 1:500 to 1:1000 dilution. Rabbit anti-phospho-AKT antibodies detecting phosphorylated isoforms of T308-AKT, S473-AKT, S807/811-RB, S575-ULK1, T389-p70S6K, Y694-STAT5, FLT3, ABL1 or T202/Y204-ERK1/2 were used at a 1:250 to 1:1000 dilution. An anti-actin mouse monoclonal antibody was used as a loading control. All antibodies, if not otherwise indicated, were purchased from Cell Signaling Technology.\nCell pellets were lysed with 100 to 150 μl of protein lysis buffer (50 mmol/L Tris, 150 mmol/L NaCl, 1% NP40, 0.25% deoxycholate with added inhibitors aprotinin, AEBSF, leupeptin, pepstatin, sodium orthovanadate, and sodium pyruvate, respectively phosphatase inhibitor cocktails „2“ and „1“ or „3“ (Sigma, St. Louis, MO). Protein from cell lysates (75 to 200 μg protein) was used for whole cell protein analysis after denaturing by Western immunoblot assays using a BioRad Criterion system. Nonspecific binding was blocked by incubating the blots in nonfat dry milk or BSA. Primary antibodies were incubated for one hour or over night, followed by several washes of Tris-buffered saline (TBS) containing 0.005% Tween 20. The appropriate secondary antibody was applied for 30‘, followed by several washes. Antibody-reactive proteins were detected using a LI-COR Odyssey® fluorescence optical system."}}}
{"smiles": "COc1ccc(-c2ccc3ncc4c(c3c2)n(-c2ccc(N3CCNCC3)c(C(F)(F)F)c2)c(=O)n4C)cn1", "note": "[NVP-BGT226]", "values": [{"measurement": "IC50", "setting": "[1]", "result": "120 to 1800", "unit": "nM"}, {"measurement": "phosphorylation of AKT (immunoblot)", "setting": "[2]", "result": "inhibits serine (S473) as well as threonine (T308) phosphorylation of AKT"}]}
